Results as given in patent US10184115B2, “Mutated cellobiose dehydrogenase with increased substrate specificity” (DIRECTSENS GMBH, priority 2012, dated 2019).

Target: T1, Myriococcum thermophilum cellobiose dehydrogenase (CDH), recombinant wild type, SEQ ID NO: 1 (Thermothelomyces myriococcoides, UniProt A9XK88)
T1 sequence (A9XK88 22-828): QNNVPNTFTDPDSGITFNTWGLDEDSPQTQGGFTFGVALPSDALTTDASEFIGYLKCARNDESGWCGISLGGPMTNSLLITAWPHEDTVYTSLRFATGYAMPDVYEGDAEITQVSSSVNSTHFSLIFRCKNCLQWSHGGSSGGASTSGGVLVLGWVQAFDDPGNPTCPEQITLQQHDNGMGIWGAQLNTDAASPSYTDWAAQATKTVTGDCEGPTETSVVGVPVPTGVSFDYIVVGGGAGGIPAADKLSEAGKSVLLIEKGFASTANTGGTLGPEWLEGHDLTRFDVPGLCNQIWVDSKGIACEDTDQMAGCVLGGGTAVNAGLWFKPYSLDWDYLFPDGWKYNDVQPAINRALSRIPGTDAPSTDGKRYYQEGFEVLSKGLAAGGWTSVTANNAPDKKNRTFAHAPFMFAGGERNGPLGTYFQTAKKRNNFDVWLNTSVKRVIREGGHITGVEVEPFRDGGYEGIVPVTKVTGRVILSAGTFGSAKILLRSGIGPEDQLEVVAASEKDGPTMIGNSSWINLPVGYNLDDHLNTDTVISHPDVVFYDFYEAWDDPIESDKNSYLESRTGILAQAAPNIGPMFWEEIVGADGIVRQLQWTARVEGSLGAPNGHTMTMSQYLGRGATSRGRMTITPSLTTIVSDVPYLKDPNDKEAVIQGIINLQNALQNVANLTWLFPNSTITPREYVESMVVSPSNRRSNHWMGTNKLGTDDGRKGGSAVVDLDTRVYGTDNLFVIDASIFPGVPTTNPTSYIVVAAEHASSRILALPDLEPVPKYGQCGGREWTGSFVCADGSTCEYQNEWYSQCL
Test: Steady-state kinetics, DCIP assay: M. thermophilum CDH wt
Type: biochemical
Conditions: apparent, pH 4.5, 30° C.
Description: Enzyme activity was assayed at 30° C. using either the DCIP (Karapetyan et al., 2005 Journal of Biotechnology 121: 34-48) or cytochrome c (Canevascini et al., 1991, European Journal of Biochemistry 198: 43-52) as electron acceptor. […] Stock solutions of carbohydrates used for kinetic measurements were prepared in the respective buffer and allowed to stand overnight for mutarotation, while stock solutions of electron acceptors were prepared in water and immediately used. The reaction stoichiometry is 1 for the two-electron acceptor DCIP (1 mole of DCIP reduced per mole of carbohydrate oxidized), but 2 for the one-electron acceptor cytochrome c. Kinetic constants were calculated by fitting the observed data to the Henri-Michaelis-Menten equation or to the adapted model for substrate inhibition using nonlinear least-squares regression and the program SigmaPlot (Systat Software, San Jose, Calif., USA). […]
Recombinant wild-type CDH as well as variants were produced in 1 L baffled flasks. […] Increase in activity was monitored using the DCIP and the cytochrome c enzyme assays. […]
The sample was loaded on a 20 mL PHE Sepharose FF column (HR26/20) equilibrated with 50 mM Na-acetate buffer pH 5.5 containing 20% ammonium sulfate. […] Fractions were tested for CDH activity and pooled according to the highest Reinheitszahl (RZ, calculated from the absorbance ratio 420 nm/280 nm). […]

`OC[C@H]1OC(O)[C@H](O)[C@@H](O)[C@@H]1O` (some centres unmarked) [Glucose, glucose] was tested, and the kcat was 4.8 s⁻¹ and the kcat/KM was 12 M⁻¹ s⁻¹.
